Data as given in patent US20110152094A1, “Herbicidal compositions comprising flufenacet” (Bayer CropScience AG, priority 2009, published 2011).

Columns and labels:
Format in all cases: in vivo
[1] = system: MATCH resistant (Matricaria chamomilla); test: Greenhouse trial, PE application on resistant biotypes (test method 8); conditions: resistant biotype, g of AS/ha: (A) 90, (B) 1200, (A)+(B) 90 + 1200, (C) 10
Procedure: (§1) In the standard design of the test, seeds of various broad-leaved weed and weed grass biotypes (origins) were sown in a 8-13 cm diameter pot filled with natural soil of a standard field soil (loamy silt; non-sterile) and covered with a covering soil layer of about 1 cm. The pots were then cultivated in a greenhouse (12-16 h of light, temperature day 20-22° C., night 15-18° C.) until the time of application. The pots were treated on a laboratory track sprayer with spray liquors comprising the compositions according to the invention, mixtures of the prior art or components used individually. Application of the active compounds or active compound combinations formulated as WG, WP, EC or otherwise was carried out at the appropriate growth stages of the plants. The application rate for the spray application was 100-600 l of water/ha. After the treatment, the plants were returned to the greenhouses.
(§2) About 3 weeks after the application, the soil action or/and foliar action was assessed visually according to a scale of 0-100% in comparison to an untreated comparative group: 0%=no noticeable effect compared to the untreated comparative group; 100%=full effect compared to the untreated comparative group.
(§3) (notes: the term “seeds” also includes vegetative propagation forms such as, for example, rhizome pieces; abbreviations used: h light=hours of illumination, g of AS/ha=gram of active substance per hectare, l/ha=liter per hectare, S=sensitive, R=resistant) • 1. Pre-emergence action against weeds: seeds of various broad-leaved weed and weed grass biotypes (origins) were sown in a 8-13 cm diameter pot filled with natural soil of a standard field soil (loamy silt; non-sterile) and covered with a covering soil layer of about 1 cm. The pots were then cultivated in a greenhouse (12-16 h of light, temperature day 20-22° C., night 15-18° C.) until the time of application. The pots were treated at the BBCH stage 00-10 of the seeds/plants on a laboratory track sprayer with spray liquors comprising the compositions according to the invention, mixtures or components used individually, as WG, WP, EC or other formulations. The application rate for the spray application was 100-600 l of water/ha. After the treatment, the plants were returned to the greenhouses and, when required, treated with fertilizer and watered. • 2. Post-emergence action against weeds: seeds of various broad-leaved weed and weed grass biotypes (origins) were sown in a 8-13 cm diameter pot filled with natural soil of a standard field soil (loamy silt; non-sterile) and covered with a covering soil layer of about 1 cm. The pots were then cultivated in a greenhouse (12-16 h of light, temperature day 20-22° C., night 15-18° C.) until the time of application. The pots were treated at various BBCH stages between 11-25 of the seeds/plants, i.e. generally between two to three weeks after the start of the cultivation, on a laboratory track sprayer with spray liquors comprising the compositions according to the invention, mixtures or components used individually, as WG, WP, EC or other formulations. The application rate for the spray application was 100-600 l of water/ha. After the treatment, the plants were returned to the greenhouses and, when required, treated with fertilizer and watered. • 3. Selective pre-emergence action: seeds of various crop species (origins) were sown in a 8-13 cm diameter pot filled with natural soil of a standard field soil (loamy silt; non-sterile) and covered with a covering soil layer of about 1 cm. The pots were then cultivated in a greenhouse (12-16 h of light, temperature day 20-22° C., night 15-18° C.) until the time of application. The pots were treated at the BBCH stage 00-10 of the seeds/plants on a laboratory track sprayer with spray liquors comprising the compositions according to the invention, mixtures or components used individually, as WG, WP, EC or other formulations. The application rate for the spray application was 100-600 l of water/ha. […]

[2] = system: ALOMY sensitive (Alopecurus myosuroides); test: as above; conditions: sensitive biotype, g of AS/ha: (A) 90, (B) 1200, (A)+(B) 90 + 1200
Procedure: as §1, §2, §3

[3] = system: MATCH sensitive (Matricaria chamomilla); test: as above; conditions: sensitive biotype, g of AS/ha: (A) 90, (B) 1200, (A)+(B) 90 + 1200, (C) 10
Procedure: as §1, §2, §3

[4] = system: ALOMY resistant (Alopecurus myosuroides); test: as above; conditions: resistant biotype, g of AS/ha: (A) 90, (B) 1200, (A)+(B) 90 + 1200
Procedure: as §1, §2, §3

STEME = Stellaria media [5] = test: Greenhouse trial, activity with different soil types (test method 7); conditions: g of AS/ha: (A) 120, (B) 1200, (A)+(B) 120 + 1200
Procedure: as §1, §2, §3

AVEFA = Avena fatua [6] = test: Greenhouse trial, pre-emergence (PE) action against weeds (test method 1); conditions: PE application; g of AS/ha: (A) 90, (B) 1200, (A)+(B) 90 + 1200
Procedure: as §1, §2
(§4) (notes: the term “seeds” also includes vegetative propagation forms such as, for example, rhizome pieces; abbreviations used: h light=hours of illumination, g of AS/ha=gram of active substance per hectare, l/ha=liter per hectare, S=sensitive, R=resistant) • 1. Pre-emergence action against weeds: seeds of various broad-leaved weed and weed grass biotypes (origins) were sown in a 8-13 cm diameter pot filled with natural soil of a standard field soil (loamy silt; non-sterile) and covered with a covering soil layer of about 1 cm. The pots were then cultivated in a greenhouse (12-16 h of light, temperature day 20-22° C., night 15-18° C.) until the time of application. The pots were treated at the BBCH stage 00-10 of the seeds/plants on a laboratory track sprayer with spray liquors comprising the compositions according to the invention, mixtures or components used individually, as WG, WP, EC or other formulations. The application rate for the spray application was 100-600 l of water/ha. After the treatment, the plants were returned to the greenhouses and, when required, treated with fertilizer and watered. • 2. Post-emergence action against weeds: seeds of various broad-leaved weed and weed grass biotypes (origins) were sown in a 8-13 cm diameter pot filled with natural soil of a standard field soil (loamy silt; non-sterile) and covered with a covering soil layer of about 1 cm. The pots were then cultivated in a greenhouse (12-16 h of light, temperature day 20-22° C., night 15-18° C.) until the time of application. […]

[7] = system: MATCH = Matricaria chamomilla; test: as above; conditions: PE application; g of AS/ha: (A) 90, (B) 1200, (A)+(B) 90 + 1200
Procedure: as §1, §2, §4

AVEFA = Avena fatua [8] = test: Greenhouse trial, PE application with different irrigation variations (test method 6); conditions: g of AS/ha: (A) 120, (B) 1200, (A)+(B) 120 + 1200
Procedure: as §1, §2, §3

[9] = system: MATCH = Matricaria chamomilla; test: as above; conditions: g of AS/ha: (A) 120, (B) 1200, (A)+(B) 120 + 1200
Procedure: as §1, §2, §3

AVEFA = Avena fatua [10] = test: Greenhouse trial, pre-sowing application 7 days prior to sowing (test method 5); conditions: g of AS/ha: (A) 90, (B) 1200, (A)+(B) 90 + 1200
Procedure: as §1, §2
(§5) (notes: the term “seeds” also includes vegetative propagation forms such as, for example, rhizome pieces; abbreviations used: h light=hours of illumination, g of AS/ha=gram of active substance per hectare, l/ha=liter per hectare, S=sensitive, R=resistant) • 1. Pre-emergence action against weeds: seeds of various broad-leaved weed and weed grass biotypes (origins) were sown in a 8-13 cm diameter pot filled with natural soil of a standard field soil (loamy silt; non-sterile) and covered with a covering soil layer of about 1 cm. The pots were then cultivated in a greenhouse (12-16 h of light, temperature day 20-22° C., night 15-18° C.) until the time of application. The pots were treated at the BBCH stage 00-10 of the seeds/plants on a laboratory track sprayer with spray liquors comprising the compositions according to the invention, mixtures or components used individually, as WG, WP, EC or other formulations. The application rate for the spray application was 100-600 l of water/ha. After the treatment, the plants were returned to the greenhouses and, when required, treated with fertilizer and watered. • 2. Post-emergence action against weeds: seeds of various broad-leaved weed and weed grass biotypes (origins) were sown in a 8-13 cm diameter pot filled with natural soil of a standard field soil (loamy silt; non-sterile) and covered with a covering soil layer of about 1 cm. The pots were then cultivated in a greenhouse (12-16 h of light, temperature day 20-22° C., night 15-18° C.) until the time of application. The pots were treated at various BBCH stages between 11-25 of the seeds/plants, i.e. generally between two to three weeks after the start of the cultivation, on a laboratory track sprayer with spray liquors comprising the compositions according to the invention, mixtures or components used individually, as WG, WP, EC or other formulations. The application rate for the spray application was 100-600 l of water/ha. After the treatment, the plants were returned to the greenhouses and, when required, treated with fertilizer and watered. • 3. […]

[11] = system: MATCH = Matricaria chamomilla; test: as above; conditions: g of AS/ha: (A) 90, (B) 1200, (A)+(B) 90 + 1200
Procedure: as §1, §2, §5

STEME = Stellaria media [12] = test: Greenhouse trial, PE application at different sowing depths (test method 9); conditions: g of AS/ha: (A) 120, (B) 1200, (A)+(B) 120 + 1200
Procedure: as §1, §2, §3

LOLPE = Lolium perenne [13] = test: as above; conditions: g of AS/ha: (A) 120, (B) 1200, (A)+(B) 120 + 1200
Procedure: as §1, §2, §3

STEME = Stellaria media [14] = test: Greenhouse trial, post-emergence (PO) action against weeds (test method 2); conditions: PO application; g of AS/ha: (A) 120, (B) 1200, (A)+(B) 120 + 1200; about 3 weeks after application
Procedure: as §1, §2, §3

VIOAR = Viola arvensis = test: as above; conditions: PO application; g of AS/ha: (A) 120, (B) 1200, (A)+(B) 120 + 1200; about 3 weeks after application
Procedure: as §1, §2, §3

LOLPE = Lolium perenne [15] = test: as above; conditions: PO application; g of AS/ha: (A) 120, (B) 1200, (A)+(B) 120 + 1200; about 3 weeks after application
Procedure: as §1, §2, §3

For CC(C)N(C(=O)COc1nnc(C(F)(F)F)s1)c1ccc(F)cc1 [(A) flufenacet, N-(4-fluorophenyl)-N-(1-methylethyl)-2-[[5-(trifluoromethyl)-1,3,4-thiadiazol-2-yl]oxy]acetamide], the “activity MATCH resistant (visual assessment, scale 0-100% vs untreated)” value [1] was 30%, the “activity ALOMY sensitive (visual assessment, scale 0-100% vs untreated)” value [2] was 80% and the “activity MATCH sensitive (visual assessment, scale 0-100% vs untreated)” value [3] was 30%. For the same molecule, the “activity ALOMY resistant (visual assessment, scale 0-100% vs untreated)” value [4] was 68%, the “activity STEME IU soil (visual assessment, scale 0-100% vs untreated)” value (STEME = Stellaria media [5]; IU soil (loamy silt, standard field soil)) was 89% and the “activity STEME IU/EC73 soil (visual assessment, scale 0-100% vs untreated)” value (STEME = Stellaria media [5]; IU/EC73 soil (heavier soil, higher organic substance)) was 0%. For the same molecule, the “Difference of the soil types Δ^D, STEME” value (STEME = Stellaria media [5]; IU/EC73 soil versus IU soil) was “Δ^D −89%”, the “activity AVEFA (visual assessment, scale 0-100% vs untreated)” value (AVEFA = Avena fatua [6]) was 85% and the “activity MATCH (visual assessment, scale 0-100% vs untreated)” value [7] was 15%. For the same molecule, the “activity AVEFA (visual assessment, scale 0-100% vs untreated)” value (AVEFA = Avena fatua [8]; irrigation from above) was 85%, the “activity AVEFA (visual assessment, scale 0-100% vs untreated)” value (AVEFA = Avena fatua [8]; irrigation from below) was 50% and the “activity MATCH (visual assessment, scale 0-100% vs untreated)” value ([9]; irrigation from above) was 97%. The “activity MATCH (visual assessment, scale 0-100% vs untreated)” value ([9]; irrigation from below) was 35%, the “activity AVEFA (visual assessment, scale 0-100% vs untreated)” value (AVEFA = Avena fatua [10]) was 70% and the “activity MATCH (visual assessment, scale 0-100% vs untreated)” value [11] was 93%. The “activity STEME, sowing depth 5 mm (visual assessment, scale 0-100% vs untreated)” value (STEME = Stellaria media [12]; sowing depth 5 mm) was 0%, the “activity STEME, sowing depth 20 mm (visual assessment, scale 0-100% vs untreated)” value (STEME = Stellaria media [12]; sowing depth 20 mm) was 20% and the “activity LOLPE, sowing depth 5 mm (visual assessment, scale 0-100% vs untreated)” value (LOLPE = Lolium perenne [13]; sowing depth 5 mm) was 80%. For the same molecule, the “activity LOLPE, sowing depth 20 mm (visual assessment, scale 0-100% vs untreated)” value (LOLPE = Lolium perenne [13]; sowing depth 20 mm) was 90%, the “activity STEME (visual assessment, scale 0-100% vs untreated)” value (STEME = Stellaria media [14]) was 30% and the “activity VIOAR (visual assessment, scale 0-100% vs untreated)” value (VIOAR = Viola arvensis) was 40%. The “activity LOLPE (visual assessment, scale 0-100% vs untreated)” value (LOLPE = Lolium perenne [15]) was 65%.
